In US9408852B2, “Method of lowering serum uric acid levels with (S)-tofisopam” (PHARMOS CORPORATION, priority 2011, dated 2016):

Columns and labels:
Type in all cases: in vivo, human
[1] = system: serum uric acid; assay: Serum uric acid in postmenopausal women, single- and multiple-dose study (Comparative Example 4); set-up: Serum uric acid, baseline adjusted data, Median / Serum uric acid, unadjusted data, Mean / Serum uric acid, unadjusted data, Median / Serum uric acid, baseline adjusted data, Mean: unit not given here
Protocol: In a double-blind, randomized, placebo-controlled, single- and multiple-dose study in postmenopausal women with enantiomerically-pure (R)-tofisopam, patients were treated with placebo, 100 mg once a day (qd) of (R)-tofisopam, or 200 mg qd of (R)-tofisopam for the first day of the study, and then with placebo, 100 mg twice a day (bid) of (R)-tofisopam, or 200 mg bid of (R)-tofisopam for Days 2 to 7 of the study.

[2] = system: serum uric acid; assay: Serum uric acid in male and female outpatients with irritable bowel syndrome, 3 months (Comparative Example 5); set-up: Serum uric acid Actual Value, Mean / Serum uric acid Change from Baseline, Mean / Serum uric acid Actual Value, Median / Serum uric acid Change from Baseline, Median: unit not given here; details: for Serum uric acid Actual Value, Mean / Serum uric acid Actual Value, Median / Serum uric acid Change from Baseline, Mean / Serum uric acid Change from Baseline, Median: men and women with irritable bowel syndrome
Protocol: The study lasted 3 months, and patients were treated with 200 mg of (R)-tofisopam twice a day (bid).

[3] = system: serum uric acid; assay: Serum uric acid in female outpatients with irritable bowel syndrome, 3 months (Comparative Example 6); set-up: Serum uric acid Actual Value, Mean / Serum uric acid Change from Baseline, Mean / Serum uric acid Actual Value, Median / Serum uric acid Change from Baseline, Median: unit not given here; details: for Serum uric acid Actual Value, Mean / Serum uric acid Actual Value, Median / Serum uric acid Change from Baseline, Mean / Serum uric acid Change from Baseline, Median: women with irritable bowel syndrome
Protocol: The study lasted 3 months, and patients were treated with 100 mg, 200 mg or 300 mg of enantiomerically-pure (R)-tofisopam twice a day.

[4] = 100 mg bid (qd on D 1, bid on D 2 to D 7), time 6 h
[5] = 100 mg bid (qd on D 1, bid on D 2 to D 7), time 24 h
[6] = 100 mg bid (qd on D 1, bid on D 2 to D 7), time 72 h
[7] = 100 mg bid (qd on D 1, bid on D 2 to D 7), time 143 h
[8] = 100 mg bid (qd on D 1, bid on D 2 to D 7), time 168 h
[9] = 200 mg bid (qd on D 1, bid on D 2 to D 7), time 6 h
[10] = 200 mg bid (qd on D 1, bid on D 2 to D 7), time 24 h
[11] = 200 mg bid (qd on D 1, bid on D 2 to D 7), time 72 h
[12] = 200 mg bid (qd on D 1, bid on D 2 to D 7), time 143 h
[13] = 200 mg bid (qd on D 1, bid on D 2 to D 7), time 168 h

SMILES: CC[C@H]1C(C)=NN=C(c2ccc(OC)c(OC)c2)c2cc(OC)c(OC)cc21 [(R)-tofisopam]
- Serum uric acid, baseline adjusted data, Mean [1, 4]: 0
- Serum uric acid, baseline adjusted data, Median [1, 4]: 0
- Serum uric acid, unadjusted data, Mean [1, 4]: 0.19
- Serum uric acid, unadjusted data, Median [1, 4]: 0.19
- Serum uric acid, baseline adjusted data, Mean [1, 5]: 0.01
- Serum uric acid, baseline adjusted data, Median [1, 5]: 0.01
- Serum uric acid, unadjusted data, Mean [1, 5]: 0.20
- Serum uric acid, unadjusted data, Median [1, 5]: 0.21
- Serum uric acid, baseline adjusted data, Mean [1, 6]: 0.01
- Serum uric acid, baseline adjusted data, Median [1, 6]: 0.01
- Serum uric acid, unadjusted data, Mean [1, 6]: 0.20
- Serum uric acid, unadjusted data, Median [1, 6]: 0.21
- Serum uric acid, baseline adjusted data, Mean [1, 7]: 0.01
- Serum uric acid, baseline adjusted data, Median [1, 7]: 0.01
- Serum uric acid, unadjusted data, Mean [1, 7]: 0.20
- Serum uric acid, unadjusted data, Median [1, 7]: 0.20
- Serum uric acid, baseline adjusted data, Mean [1, 8]: 0.03
- Serum uric acid, baseline adjusted data, Median [1, 8]: 0.03
- Serum uric acid, unadjusted data, Mean [1, 8]: 0.23
- Serum uric acid, unadjusted data, Median [1, 8]: 0.23
- Effect on serum uric acid levels ([1]; 100 mg or 200 mg qd first day, bid Days 2 to 7): does not decrease
- Serum uric acid, baseline adjusted data, Mean [1, 9]: −0.01
- Serum uric acid, baseline adjusted data, Median [1, 9]: −0.01
- Serum uric acid, unadjusted data, Mean [1, 9]: 0.21
- Serum uric acid, unadjusted data, Median [1, 9]: 0.21
- Serum uric acid, baseline adjusted data, Mean [1, 10]: −0.01
- Serum uric acid, baseline adjusted data, Median [1, 10]: −0.01
- Serum uric acid, unadjusted data, Mean [1, 10]: 0.21
- Serum uric acid, unadjusted data, Median [1, 10]: 0.21
- Serum uric acid, baseline adjusted data, Mean [1, 11]: 0
- Serum uric acid, baseline adjusted data, Median [1, 11]: 0
- Serum uric acid, unadjusted data, Mean [1, 11]: 0.22
- Serum uric acid, unadjusted data, Median [1, 11]: 0.22
- Serum uric acid, baseline adjusted data, Mean [1, 12]: −0.01
- Serum uric acid, baseline adjusted data, Median [1, 12]: 0
- Serum uric acid, unadjusted data, Mean [1, 12]: 0.21
- Serum uric acid, unadjusted data, Median [1, 12]: 0.21
- Serum uric acid, baseline adjusted data, Mean [1, 13]: 0.01
- Serum uric acid, baseline adjusted data, Median [1, 13]: 0.01
- Serum uric acid, unadjusted data, Mean [1, 13]: 0.22
- Serum uric acid, unadjusted data, Median [1, 13]: 0.23
- Serum uric acid levels over time ([1]; up to 168 hours (7 days) after initiation of treatment): remained constant
- Serum uric acid Actual Value, Mean ([2]; 200 mg bid, 3 months Endpoint): 5.20
- Serum uric acid Actual Value, Median ([2]; 200 mg bid, 3 months Endpoint): 5.10
- Serum uric acid Change from Baseline, Mean ([2]; 200 mg bid, 3 months Endpoint): −0.06
- Serum uric acid Change from Baseline, Median ([2]; 200 mg bid, 3 months Endpoint): 0.00
- Serum uric acid Actual Value, Mean ([2]; 200 mg bid, Day 7): 5.18
- Serum uric acid Actual Value, Median ([2]; 200 mg bid, Day 7): 5.00
- Serum uric acid Change from Baseline, Mean ([2]; 200 mg bid, Day 7): −0.05
- Serum uric acid Change from Baseline, Median ([2]; 200 mg bid, Day 7): 0.00
- Serum uric acid Actual Value, Mean ([2]; 200 mg bid, Day 14): 5.22
- Serum uric acid Actual Value, Median ([2]; 200 mg bid, Day 14): 5.05
- Serum uric acid Change from Baseline, Mean ([2]; 200 mg bid, Day 14): −0.01
- Serum uric acid Change from Baseline, Median ([2]; 200 mg bid, Day 14): −0.10
- Serum uric acid Actual Value, Mean ([2]; 200 mg bid, Day 28): 5.18
- Serum uric acid Actual Value, Median ([2]; 200 mg bid, Day 28): 5.00
- Serum uric acid Change from Baseline, Mean ([2]; 200 mg bid, Day 28): −0.07
- Serum uric acid Change from Baseline, Median ([2]; 200 mg bid, Day 28): −0.10
- Serum uric acid Actual Value, Mean ([2]; 200 mg bid, Day 42): 5.46
- Serum uric acid Actual Value, Median ([2]; 200 mg bid, Day 42): 5.70
- Serum uric acid Change from Baseline, Mean ([2]; 200 mg bid, Day 42): 0.12
- Serum uric acid Change from Baseline, Median ([2]; 200 mg bid, Day 42): 0.20
- Serum uric acid Actual Value, Mean ([2]; 200 mg bid, Day 56): 5.40
- Serum uric acid Actual Value, Median ([2]; 200 mg bid, Day 56): 5.20
- Serum uric acid Change from Baseline, Mean ([2]; 200 mg bid, Day 56): 0.02
- Serum uric acid Change from Baseline, Median ([2]; 200 mg bid, Day 56): 0.00
- Serum uric acid Actual Value, Mean ([2]; 200 mg bid, Day 84): 5.37
- Serum uric acid Actual Value, Median ([2]; 200 mg bid, Day 84): 5.30
- Serum uric acid Change from Baseline, Mean ([2]; 200 mg bid, Day 84): 0.03
- Serum uric acid Change from Baseline, Median ([2]; 200 mg bid, Day 84): 0.10
- Effect on serum uric acid levels ([2]; 200 mg twice a day (bid), 3 months, male and female outpatients with irritable bowel syndrome): does not decrease
- Serum uric acid levels over time ([2]; up to 3 months after initiation of treatment, 200 mg bid): remained constant
- Serum uric acid Actual Value, Mean ([3]; 100 mg BID, 3 months Endpoint): 4.94
- Serum uric acid Actual Value, Median ([3]; 100 mg BID, 3 months Endpoint): 4.90
- Serum uric acid Change from Baseline, Mean ([3]; 100 mg BID, 3 months Endpoint): 0.22
- Serum uric acid Change from Baseline, Median ([3]; 100 mg BID, 3 months Endpoint): 0.20
- Serum uric acid Actual Value, Mean ([3]; 100 mg BID, Week 12): 4.91
- Serum uric acid Actual Value, Median ([3]; 100 mg BID, Week 12): 4.80
- Serum uric acid Change from Baseline, Mean ([3]; 100 mg BID, Week 12): 0.23
- Serum uric acid Change from Baseline, Median ([3]; 100 mg BID, Week 12): 0.20
- Effect on serum uric acid levels ([3]; 100 mg, 200 mg or 300 mg twice a day, 3 months, female outpatients with irritable bowel syndrome): does not decrease
- Serum uric acid Actual Value, Mean ([3]; 200 mg BID, 3 months Endpoint): 4.82
- Serum uric acid Actual Value, Median ([3]; 200 mg BID, 3 months Endpoint): 4.60
- Serum uric acid Change from Baseline, Mean ([3]; 200 mg BID, 3 months Endpoint): −0.19
- Serum uric acid Change from Baseline, Median ([3]; 200 mg BID, 3 months Endpoint): −0.20
- Serum uric acid Actual Value, Mean ([3]; 200 mg BID, Week 12): 4.82
- Serum uric acid Actual Value, Median ([3]; 200 mg BID, Week 12): 4.60
- Serum uric acid Change from Baseline, Mean ([3]; 200 mg BID, Week 12): −0.20
- Serum uric acid Change from Baseline, Median ([3]; 200 mg BID, Week 12): −0.20
- Serum uric acid Actual Value, Mean ([3]; 300 mg BID, 3 months Endpoint): 5.04
- Serum uric acid Actual Value, Median ([3]; 300 mg BID, 3 months Endpoint): 5.00
- Serum uric acid Change from Baseline, Mean ([3]; 300 mg BID, 3 months Endpoint): −0.05
- Serum uric acid Change from Baseline, Median ([3]; 300 mg BID, 3 months Endpoint): 0.00
- Serum uric acid Actual Value, Mean ([3]; 300 mg BID, Week 12): 5.02
- Serum uric acid Actual Value, Median ([3]; 300 mg BID, Week 12): 4.95
- Serum uric acid Change from Baseline, Mean ([3]; 300 mg BID, Week 12): −0.06
- Serum uric acid Change from Baseline, Median ([3]; 300 mg BID, Week 12): −0.05
- Serum uric acid levels over time ([3]; up to 3 months after initiation of treatment, 100, 200 or 300 mg twice a day): remained constant
